The compounds below were run against T1, HGFR (Homo sapiens, UniProt P08581) (assay: HGFR continuous-coupled spectrophotometric assay).
T1 construct: purchased Upstate 14-526
Type: biochemical

T1 sequence (P08581 974-1390 limits assumed): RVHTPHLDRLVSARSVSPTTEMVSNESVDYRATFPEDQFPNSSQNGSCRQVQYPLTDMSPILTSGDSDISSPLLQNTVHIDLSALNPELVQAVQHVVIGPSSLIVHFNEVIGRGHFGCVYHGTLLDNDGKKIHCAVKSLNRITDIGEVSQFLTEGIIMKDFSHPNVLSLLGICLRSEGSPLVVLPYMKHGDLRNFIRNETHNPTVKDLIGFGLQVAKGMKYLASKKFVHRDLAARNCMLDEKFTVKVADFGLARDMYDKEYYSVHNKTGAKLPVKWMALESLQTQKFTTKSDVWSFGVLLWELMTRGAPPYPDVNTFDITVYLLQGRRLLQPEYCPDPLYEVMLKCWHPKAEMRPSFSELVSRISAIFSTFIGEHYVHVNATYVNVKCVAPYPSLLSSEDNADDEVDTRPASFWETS

Compound | % inhibition
COc1ccccc1-c1nc(COc2cc(-c3ccc(C(=O)N4CCC(N5CCCC5)CC4)cc3)cnc2N)no1 | % inhibition = 8
Nc1ncc(-c2ccc(C(=O)N3CCC(N4CCCC4)CC3)cc2)cc1OCc1csc(-c2ccc(Cl)cc2)n1 | % inhibition = 9
Cc1nc(COc2cc(-c3ccc(C(=O)N4CCC(N5CCCC5)CC4)cc3)cnc2N)cs1 | % inhibition = 6
Nc1ncc(-c2ccc(C(=O)N3CCC(N4CCCC4)CC3)cc2)cc1OCc1noc(-c2cccc(C(F)(F)F)c2)n1 | % inhibition = 27
Nc1ncc(-c2ccc(C(=O)N3CCC(N4CCCC4)CC3)cc2)cc1OCc1cn2cccnc2n1 | % inhibition = 16
Cc1cc(C)n2nc(COc3cc(-c4ccc(C(=O)N5CCC(N6CCCC6)CC5)cc4)cnc3N)nc2n1 | % inhibition = 18
Nc1ncc(-c2ccc(C(=O)N3CCC(N4CCCC4)CC3)cc2)cc1OCc1cccc2cccnc12 | % inhibition = 22
Cn1nc(-c2ccccc2)c(COc2cc(-c3ccc(C(=O)N4CCC(N5CCCC5)CC4)cc3)cnc2N)c1Cl | % inhibition = 63
Nc1ncc(-c2ccc(C(=O)N3CCC(N4CCCC4)CC3)cc2)cc1OCc1nc2ccccc2s1 | % inhibition = 17
Cc1ccc(-c2nnc(COc3cc(-c4ccc(C(=O)N5CCC(N6CCCC6)CC5)cc4)cnc3N)o2)cc1 | % inhibition = 18
Nc1ncc(-c2ccc(C(=O)N3CCC(N4CCCC4)CC3)cc2)cc1OCc1cc(-c2ccccc2)no1 | % inhibition = 23
Cc1cc(COc2cc(-c3ccc(C(=O)N4CCC(N5CCCC5)CC4)cc3)cnc2N)no1 | % inhibition = 16
Nc1ncc(-c2ccc(C(=O)N3CCC(N4CCCC4)CC3)cc2)cc1OCc1nnn[nH]1 | % inhibition = 14
COC(=O)Nc1cc(COc2cc(-c3ccc(C(=O)N4CCC(N5CCCC5)CC4)cc3)cnc2N)on1 | % inhibition = 18
Cn1ccnc1COc1cc(-c2ccc(C(=O)N3CCC(N4CCCC4)CC3)cc2)cnc1N | % inhibition = 14
Cc1nc(COc2cc(-c3ccc(C(=O)N4CCC(N5CCCC5)CC4)cc3)cnc2N)n(C)n1 | % inhibition = 14
Nc1ncc(-c2ccc(C(=O)N3CCC(N4CCCC4)CC3)cc2)cc1OCc1nc2cc(C(F)(F)F)ccc2s1 | % inhibition = 34
Nc1ncc(-c2ccc(C(=O)N3CCC(N4CCCC4)CC3)cc2)cc1OCc1ccc2ccc(Cl)cc2n1 | % inhibition = 24
Cc1oc(-c2ccccc2)nc1COc1cc(-c2ccc(C(=O)N3CCC(N4CCCC4)CC3)cc2)cnc1N | % inhibition = 19
Nc1ncc(-c2ccc(C(=O)N3CCC(N4CCCC4)CC3)cc2)cc1OCc1nc2ncccn2n1 | % inhibition = 19
Cc1cc(=O)n2nc(COc3cc(-c4ccc(C(=O)N5CCC(N6CCCC6)CC5)cc4)cnc3N)nc2[nH]1 | % inhibition = 18
Nc1ncc(-c2ccc(C(=O)N3CCC(N4CCCC4)CC3)cc2)cc1OCc1nnnn1Cc1ccccc1 | % inhibition = 19
Cc1cnc2nc(COc3cc(-c4ccc(C(=O)N5CCC(N6CCCC6)CC5)cc4)cnc3N)nn2c1 | % inhibition = 17
Nc1ncc(-c2ccc(C(=O)N3CCC(N4CCCC4)CC3)cc2)cc1OCc1nc2ccc(Cl)cc2[nH]1 | % inhibition = 16
Nc1ncc(-c2ccc(C(=O)N3CCC(N4CCCC4)CC3)cc2)cc1OCc1nc2cccnc2[nH]1 | % inhibition = 17
Nc1ncc(-c2ccc(C(=O)N3CCC(N4CCCC4)CC3)cc2)cc1OCc1nc2ncccc2o1 | % inhibition = 17
COc1cc(OC)nc(COc2cc(-c3ccc(C(=O)N4CCC(N5CCCC5)CC4)cc3)cnc2N)n1 | % inhibition = 20

Compound | % inhibition
Cc1[nH]cnc1COc1cc(-c2ccc(C(=O)N3CCC(N4CCCC4)CC3)cc2)cnc1N | % inhibition = 12
CCCCc1nc(COc2cc(-c3ccc(C(=O)N4CCC(N5CCCC5)CC4)cc3)cnc2N)c[nH]1 | % inhibition = 16
COc1ccnc(COc2cc(-c3ccc(C(=O)N4CCC(N5CCCC5)CC4)cc3)cnc2N)c1OC | % inhibition = 23
Nc1ncc(-c2ccc(C(=O)N3CCC(N4CCCC4)CC3)cc2)cc1OCc1cn2cc(Cl)ccc2n1 | % inhibition = 16
Cc1cccnc1COc1cc(-c2ccc(C(=O)N3CCC(N4CCCC4)CC3)cc2)cnc1N | % inhibition = 16
Cc1ccn2cc(COc3cc(-c4ccc(C(=O)N5CCC(N6CCCC6)CC5)cc4)cnc3N)nc2c1 | % inhibition = 18
Cc1oc(-c2ccc(F)cc2)nc1COc1cc(-c2ccc(C(=O)N3CCC(N4CCCC4)CC3)cc2)cnc1N | % inhibition = 17
Cc1cccc(COc2cc(-c3ccc(C(=O)N4CCC(N5CCCC5)CC4)cc3)cnc2N)n1 | % inhibition = 17
Cc1cc(C)nc(COc2cc(-c3ccc(C(=O)N4CCC(N5CCCC5)CC4)cc3)cnc2N)n1 | % inhibition = 16
COc1ccccc1-c1nc(COc2cc(-c3ccc(C(=O)N4CCC(N5CCCC5)CC4)cc3)cnc2N)c(C)o1 | % inhibition = 19
CCc1ccc(COc2cc(-c3ccc(C(=O)N4CCC(N5CCCC5)CC4)cc3)cnc2N)nc1 | % inhibition = 15
Cc1oc(-c2cccc(F)c2)nc1COc1cc(-c2ccc(C(=O)N3CCC(N4CCCC4)CC3)cc2)cnc1N | % inhibition = 8
Cn1nc(C(F)(F)F)c2cc(COc3cc(-c4ccc(C(=O)N5CCC(N6CCCC6)CC5)cc4)cnc3N)sc21 | % inhibition = 14
Nc1ncc(-c2ccc(C(=O)N3CCC(N4CCCC4)CC3)cc2)cc1OCc1cc(-c2ccc(Cl)cc2)no1 | % inhibition = 23
Cn1nc(CC2CC2)nc1COc1cc(-c2ccc(C(=O)N3CCC(N4CCCC4)CC3)cc2)cnc1N | % inhibition = 7
N#Cc1nc(COc2cc(-c3ccc(C(=O)N4CCC(N5CCCC5)CC4)cc3)cnc2N)cnc1N | % inhibition = 9
Cn1nc(-c2ccccc2)nc1COc1cc(-c2ccc(C(=O)N3CCC(N4CCCC4)CC3)cc2)cnc1N | % inhibition = 5
Cn1nc(C2CC2)nc1COc1cc(-c2ccc(C(=O)N3CCC(N4CCCC4)CC3)cc2)cnc1N | % inhibition = 5
Cc1ccnc2nc(COc3cc(-c4ccc(C(=O)N5CCC(N6CCCC6)CC5)cc4)cnc3N)cn12 | % inhibition = 10
Nc1ncc(-c2ccc(C(=O)N3CCC(N4CCCC4)CC3)cc2)cc1OCc1ncccn1 | % inhibition = 9
CCc1ccn2cc(COc3cc(-c4ccc(C(=O)N5CCC(N6CCCC6)CC5)cc4)cnc3N)nc2c1 | % inhibition = 9
Nc1nc(COc2cc(-c3ccc(C(=O)N4CCC(N5CCCC5)CC4)cc3)cnc2N)nc(Nc2ccccc2)n1 | % inhibition = 9
Nc1ncc(-c2ccc(C(=O)N3CCC(N4CCCC4)CC3)cc2)cc1OCc1nccn1Cc1ccccc1 | % inhibition = 8
N#Cc1ccc(COc2cc(-c3ccc(C(=O)N4CCC(N5CCCC5)CC4)cc3)cnc2N)cc1 | % inhibition = 8
Nc1ncc(-c2ccc(C(=O)N3CCC(N4CCCC4)CC3)cc2)cc1COc1ccc2ccccc2c1 | % inhibition = 27
N#Cc1cccc(COc2cc(-c3ccc(C(=O)N4CCC(N5CCCC5)CC4)cc3)cnc2N)c1 | % inhibition = 12
Nc1ncc(-c2ccc(C(=O)N3CCC(N4CCCC4)CC3)cc2)cc1OCc1ccc(F)cc1F | % inhibition = 18
